In PMC2888031 (Bioorganic & medicinal chemistry, 2009):
“Also recorded” adds a separate entry of the source.

The compounds below were run against Bacillus anthracis sortase enzyme (BaSrtA) (Bacillus anthracis, UniProt P0DPQ5) (assay: biochemical). Details: not given.
Chain of Bacillus anthracis sortase enzyme (BaSrtA) (P0DPQ5 57-210 limits assumed): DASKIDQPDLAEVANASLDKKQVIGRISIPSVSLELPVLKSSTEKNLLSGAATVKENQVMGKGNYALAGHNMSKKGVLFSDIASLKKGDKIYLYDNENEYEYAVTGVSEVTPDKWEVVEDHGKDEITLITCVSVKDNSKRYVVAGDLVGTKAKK

Row | Compound | IC50
1 | CC1=NN(c2ccccc2)C(=S)/C1=C/Nc1c(Br)cc(Br)cc1Br [3–12] | 1700 ± 200 nM

The compounds below were run on S. aureus (assay: S. aureus culture growth in the presence of 500 µM inhibitor). Details: vs control cultures in 2.5% DMSO (Fig. 4).
Assay type: cell-based, Staphylococcus aureus

Row | Compound | effect on S. aureus growth
2 | CCSc1c(S)cnn(-c2ccccc2)c1=O [2–9] | do not significantly inhibit S. aureus growth; also recorded: not bactericidal; also recorded: do not impair microbial growth in cell culture
3 | CCOc1cnn(-c2cccc(C)c2)c(=O)c1S [2–20] | do not significantly inhibit S. aureus growth; also recorded: not bactericidal
4 | CC1=NN(c2ccccc2)C(=S)/C1=C/Nc1ccc(/N=N/c2ccccc2)cc1 [3–9] | do not substantially affect bacterial growth; also recorded: non-bacteriocidal
5 | CC1=NN(c2ccccc2)C(=S)/C1=C/Nc1c(Br)cc(Br)cc1Br [3–12] | do not substantially affect bacterial growth; also recorded: no detrimental effect to bacterial viability; also recorded: non-bacteriocidal; also recorded: do not impair microbial growth in cell culture
6 | CC1=NN(c2ccccc2)C(=S)/C1=C/Nc1ccccn1 [3–17] | do not substantially affect bacterial growth
7 | Cc1ccc(N2C(=O)/C(=C/c3cc([N+](=O)[O-])cc(Br)c3O)SC2=S)c(C)c1 [Compound 1] | toxic
8 | COc1c(S)cnn(-c2cccc(Cl)c2)c1=O [Compound 2] | only modestly perturb growth
9 | CC1=NN(c2ccccc2)C(=S)/C1=C/Nc1ccc(Br)cc1 [Compound 3-1] | do not substantially affect bacterial growth
10 | CC1=NN(c2ccccc2)C(=S)/C1=C/Nc1ccc([N+](=O)[O-])cc1 [Compound 3] | only modestly perturb growth
